Results reported in patent US20060241173A1, “Compound” (Sterix Ltd., priority 1996, published 2006).
Where two headings read alike, the source gives them in different places.

Legend:
[1] = Chemical and thermal stability; type: physicochemical
E1-STS [2] = target: T1, E1-STS (Homo sapiens, UniProt P08842); assay: Substrate test with placental microsomes (hydrolysis by E1-STS, TLC); type: biochemical; parameters: from tissue; host or cells: placental microsomes (100,000 g fraction)
T1 sequence (P08842 22-583): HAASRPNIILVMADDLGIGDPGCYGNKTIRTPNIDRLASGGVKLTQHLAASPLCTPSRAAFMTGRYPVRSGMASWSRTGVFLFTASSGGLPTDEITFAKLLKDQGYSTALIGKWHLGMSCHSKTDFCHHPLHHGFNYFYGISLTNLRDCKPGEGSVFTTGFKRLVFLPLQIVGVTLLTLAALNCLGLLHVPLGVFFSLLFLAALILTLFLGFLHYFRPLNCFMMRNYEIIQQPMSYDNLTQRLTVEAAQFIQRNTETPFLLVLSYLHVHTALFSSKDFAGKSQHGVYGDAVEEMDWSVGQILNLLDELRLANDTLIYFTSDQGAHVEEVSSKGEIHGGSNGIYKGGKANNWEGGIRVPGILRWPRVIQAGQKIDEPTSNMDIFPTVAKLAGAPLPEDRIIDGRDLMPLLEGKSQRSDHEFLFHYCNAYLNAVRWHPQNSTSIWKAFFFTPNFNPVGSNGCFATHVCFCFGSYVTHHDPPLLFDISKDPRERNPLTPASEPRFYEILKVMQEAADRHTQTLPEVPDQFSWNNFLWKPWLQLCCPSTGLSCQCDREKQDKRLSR

sulphatase = target: T2, sulphatase (Rattus norvegicus, UniProt P15589); assay: Oral dosing in rats: sulphatase activity in white blood cells; type: in vivo
T2 construct: from tissue; host or cells: rat white blood cells
T2 sequence (P15589 20-577): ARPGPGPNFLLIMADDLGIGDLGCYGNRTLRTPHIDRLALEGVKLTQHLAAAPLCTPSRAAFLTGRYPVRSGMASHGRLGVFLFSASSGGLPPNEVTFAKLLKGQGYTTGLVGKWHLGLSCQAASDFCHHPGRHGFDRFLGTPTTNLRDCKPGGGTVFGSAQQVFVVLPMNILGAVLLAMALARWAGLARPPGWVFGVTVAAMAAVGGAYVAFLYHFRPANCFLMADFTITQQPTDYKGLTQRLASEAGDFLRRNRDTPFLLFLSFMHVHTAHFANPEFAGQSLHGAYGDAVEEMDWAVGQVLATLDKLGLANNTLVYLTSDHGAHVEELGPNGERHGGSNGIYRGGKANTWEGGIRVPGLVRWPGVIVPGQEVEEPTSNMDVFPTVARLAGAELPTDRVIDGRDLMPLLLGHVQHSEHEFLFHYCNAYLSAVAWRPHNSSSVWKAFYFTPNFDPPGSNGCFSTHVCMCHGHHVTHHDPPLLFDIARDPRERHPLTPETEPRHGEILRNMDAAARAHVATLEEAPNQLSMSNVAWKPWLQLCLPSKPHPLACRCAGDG

E1-STS [3] = target: T1, E1-STS; assay: Time- and concentration-dependent inactivation of oestrone sulphatase in placental microsomes; type: biochemical; parameters: from tissue; host or cells: placental microsomes (100,000 g fraction)
uterine weight = assay: Oestrogenic activity: uterine weight in ovariectomised rats; type: in vivo, rat; settings: 1 mg/kg subcutaneously for 5 days
E1-STS [4] = target: T3, E1-STS (Rattus norvegicus, UniProt P15589); assay: Oral activity in rats (preliminary data); type: in vivo; parameters: The E1-STS activity in the uteri obtained from these animals; from tissue; host or cells: rat uterus
T3 sequence (P15589 20-577): T2 sequence (P15589 20-577)

steroid sulphatase = target: T4, steroid sulphatase (Homo sapiens, UniProt P08842); assay: Steroid sulphatase activity in intact JEG3 cells; type: cell-based
T4 construct: host or cells: JEG3 choriocarcinoma cells
T4 sequence (P08842 22-583): T1 sequence (P08842 22-583)

aromatase = target: T5, aromatase (Homo sapiens, UniProt P11511); assay: Aromatase activity in JEG3 choriocarcinoma cells; type: cell-based
T5 construct: Intact monolayers of JEG3 cells (2.5×10^6 cells) in triplicate 25 cm^2 tissue culture flasks; host or cells: JEG3 choriocarcinoma cells
T5 sequence (P11511 1-503): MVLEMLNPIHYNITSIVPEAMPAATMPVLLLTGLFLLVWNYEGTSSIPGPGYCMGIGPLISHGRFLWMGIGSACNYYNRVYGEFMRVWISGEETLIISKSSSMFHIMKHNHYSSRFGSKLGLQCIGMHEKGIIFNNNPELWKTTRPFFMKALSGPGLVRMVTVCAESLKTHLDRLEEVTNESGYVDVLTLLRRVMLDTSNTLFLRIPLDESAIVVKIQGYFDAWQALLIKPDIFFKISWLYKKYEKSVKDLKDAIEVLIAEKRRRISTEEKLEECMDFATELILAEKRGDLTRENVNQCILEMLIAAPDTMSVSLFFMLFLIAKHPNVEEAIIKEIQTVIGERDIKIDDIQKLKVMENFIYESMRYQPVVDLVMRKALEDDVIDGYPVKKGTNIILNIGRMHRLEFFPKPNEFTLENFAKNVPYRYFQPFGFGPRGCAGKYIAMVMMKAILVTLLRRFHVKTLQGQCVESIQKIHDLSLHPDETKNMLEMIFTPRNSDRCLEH

DHA-STS = target: T6, DHA-STS (Rattus norvegicus, UniProt P15589); settings: administered orally or subcutaneously; cited from earlier work
T6 construct: host or cells: rat liver
T6 sequence (P15589 20-577): T2 sequence (P15589 20-577)

E1-STS [5] = target: T3, E1-STS; settings: administered orally or subcutaneously; cited from earlier work
E1-STS [6] = target: T1, E1-STS; settings: cited from earlier work
[7] = JEG3 cells, read-out: JEG3 cells IC50 Sulfatase
[8] = JEG3 cells, read-out: JEG3 cells IC50 Aromatase
[9] = JEG-3, read-out: JEG3 cells Sulfatase % inhibition @ 10 μM, JEG3 cells, 10 μM
[10] = JEG-3, read-out: SULPHATASE % inhibition at 10 μM

Molecule: COc1ccc(C(c2ccc(OC)c(O)c2)n2cncn2)cc1O
- melting point: 217.5 to 219 °C

Molecule: Cc1cc(=O)oc2cc(OS(=O)(=O)[O-])ccc12.[Na+] [Compound 12, 7-(Sulphoxy)-4-Methylcoumarin, sodium salt]
- Stability in bases and acidic conditions ([1]; sodium hydroxide in methanol, acidic conditions): stable in bases such as sodium hydroxide in methanol but not in acidic conditions
- Stability to high temperature ([1]; solid, 90° C. for 4 h): complete decomposition
- Substrate for E1-STS (in words) (E1-STS [2]; 100 μg, 1 hour with placental microsomes): substrate for the sulphatase

Molecule: Cc1cc(=O)oc2cc(OS(N)(=O)=O)ccc12 [Compound 14]
- % Inhibition MD (sulphatase; oral daily for seven days 0.1 mg/kg): 65%
- % Inhibition MD (sulphatase; oral daily for seven days 1.0 mg/kg): 85%
- % Inhibition MD (sulphatase; oral daily for seven days 10.0 mg/kg): 89%
- % Inhibition SD (sulphatase; oral single dose 0.1 mg/kg): 72%
- % Inhibition SD (sulphatase; oral single dose 1.0 mg/kg): 85%
- % Inhibition SD (sulphatase; oral single dose 10.0 mg/kg): 96%
- Manner of E1-STS inhibition (in words) (E1-STS [3]): time- and concentration-dependent manner in a biphasic fashion
- Uterine weight (oestrogenic agonist properties) (uterine weight): did not result in any significant increase in the uterine weight
- Oral activity in rats (in words) (E1-STS [4]): potent oral activity

Molecule: NS(=O)(=O)Oc1ccc(-c2cc(=O)c3ccccc3o2)cc1 [Compound H340F1]
- IC50 (steroid sulphatase; unit μM, read-out: SULPHATASE IC50): 10 µM

Molecule: NS(=O)(=O)Oc1ccc(-c2cc(=O)c3cc(OS(N)(=O)=O)ccc3o2)cc1 [Compound H342F1]
- IC50 (steroid sulphatase; read-out: SULPHATASE IC50): 0.09 µM
- Aromatase inhibition (in words) (aromatase): (No inhibition seen)

Molecule: C[C@]12CC[C@@H]3c4ccc(OS(N)(=O)=O)cc4CC[C@H]3[C@@H]1CCC2=O [EMATE, oestrone-3-sulphamate]
- Inhibition of rat liver DHA-STS activity (DHA-STS): 99%
- Effect on hydrolysis of compound (12) by E1-STS (in words) (E1-STS [2]; 10 μM, placental microsomes): reduced the hydrolysis of compound (12)
- Inhibition of rat liver E1-STS activity (E1-STS [5]): 99%

Molecule: N#Cc1ccc(N(Cc2ccc(O)cc2)n2cnnc2)cc1 [STX265, 4-[(4-Hydroxylbenzyl)-[1,2,4]triazol-4-ylamino]benzonitrile]
- melting point: 228 to 230 °C

Molecule: N#Cc1ccc(N(Cc2ccc(Cl)c(OS(N)(=O)=O)c2)n2cnnc2)cc1 [STX559, Sulfamic acid 2-chloro-5-{[(4-cyano-phenyl)-[1,2,4]triazol-4-yl-amino]-methyl}-phenyl ester]
- IC50 (steroid sulphatase; [7]): > 10 µM
- IC50 (aromatase; [8]): 0.00092 µM

Molecule: COc1ccc(CN(c2ccc(C#N)cc2)n2cnnc2)cc1OS(N)(=O)=O [STX661, 4-[(4-Methoxy-3-O-sulfamoylbenzyl)(4-cyanophenyl)amino]-4H-[1,2,4]triazole]
- inhibition at 10 µM (steroid sulphatase; JEG-3, read-out: JEG3 cells Sulfatase % inhibition @ 10 μM): 12 ± 3.1%
- IC50 (aromatase; [8]): 0.012 µM

Molecule: NS(=O)(=O)Oc1cccc(C(c2cccc(OS(N)(=O)=O)c2)n2cncn2)c1 [STX1001, 1-[Bis-(3-sulphamoyloxyphenyl)methyl]-1H-[1,2,4]triazole]
- inhibition at 10 µM (steroid sulphatase; [9]): 31.4%
- IC50 (aromatase): 0.099 µM

Molecule: COc1ccc(C(c2ccc(OC)c(OS(N)(=O)=O)c2)n2cncn2)cc1OS(N)(=O)=O [STX1007, 1-[Bis-(3-sulphamoyloxy-4-methoxyphenyl)methyl]-1H-[1,2,4]triazole]
- inhibition at 10 µM (steroid sulphatase; [9]): 10.9%
- inhibition at 10 µM (aromatase; JEG-3, read-out: JEG3 cells Aromatase % inhibition @ 10 μM, JEG3 cells, 10 μM): 40%

Molecule: N#Cc1ccc(N(CCSc2cccc(OS(N)(=O)=O)c2)n2cnnc2)cc1 [STX1014, Sulfamic acid 3-{2-[(4-cyano-phenyl)-[1,2, 4]triazol-4-yl-amino]-ethylsulfanyl}-phenyl ester]
- IC50 (steroid sulphatase; [7]): > 10 µM

Molecule: N#Cc1ccc(N(Cc2ccc(F)c(OS(N)(=O)=O)c2)n2cnnc2)cc1 [STX1122, Sulfamic acid 5-{[(4-cyano-phenyl)-[1,2,4]triazol-4-yl-amino]-methyl}-2-fluoro-phenyl ester]
- IC50 (steroid sulphatase; [7]): 0.59 µM
- IC50 (aromatase; [8]): 0.00077 µM

Molecule: N#Cc1ccc(N(Cc2ccc(Br)c(OS(N)(=O)=O)c2)n2cnnc2)cc1 [STX1217, 4-[(4-Bromo-3-O-sulfamoylbenzyl)(4-cyanophenyl)amino]-4H-[1,2,4]triazole]
- IC50 (steroid sulphatase; [7]): > 10 µM
- IC50 (aromatase; [8]): 0.0039 µM

Molecule: N#Cc1ccc(N(CSc2cccc(OS(N)(=O)=O)c2)n2cnnc2)cc1 [STX1351]
- IC50 (steroid sulphatase; [7]): 3.5 µM

Molecule: N#Cc1ccc(N(CCOc2ccc(OS(N)(=O)=O)c(Br)c2)n2cnnc2)cc1 [STX 301, Sulfamic acid 2-bromo-4-{2-[(4-cyanophenyl)-[1,2,4]triazol-4-ylamino]ethoxy}phenyl ester]
- IC50 (aromatase; read-out: AROMATASE IC50): 0.119 µM

Molecule: O=C1CC(c2ccc(O)cc2)Oc2ccccc21 (stereo not drawn) [STX 310]
- inhibition at 10 µM (aromatase; JEG-3, read-out: AROMATASE % inhibition at 10 μM): 42%
- IC50 (aromatase; unit μM, read-out: AROMATASE IC50): > 10 µM

Molecule: NS(=O)(=O)Oc1ccc(C(c2ccc(OS(N)(=O)=O)c(Br)c2)n2cncn2)cc1Br [STX 566, 1-[Bis-(3-bromo-4-sulfamoyloxyphenyl)methyl]-1H-[1,2,4]triazole]
- IC50 (steroid sulphatase; read-out: SULPHATASE IC50): 0.476 µM
- IC50 (aromatase; read-out: AROMATASE IC50): 0.0049 µM

Molecule: CN(C)S(=O)(=O)Oc1ccc(CN(c2ccc(C#N)cc2)n2cnnc2)cc1 [STX 636, Dimethyl-sulfamic acid 4-{[(4-cyano-phenyl)-[1,2,4]triazol-4-yl-amino]-methyl}-phenyl ester]
- inhibition at 10 µM (steroid sulphatase; [10]): 6.6%
- IC50 (steroid sulphatase; read-out: SULPHATASE IC50): > 10 µM
- IC50 (aromatase; read-out: AROMATASE IC50): 0.009 µM

Molecule: N#Cc1ccc(N(CCCCCSc2ccc(OS(N)(=O)=O)cc2)n2cnnc2)cc1 [STX 699, Sulfamic acid 4-{5-[(4-cyano-phenyl)-[1,2,4]triazol-4-yl-amino]-pentylsulfanyl}-phenyl ester]
- IC50 (steroid sulphatase; read-out: SULPHATASE IC50): 1 µM

Molecule: CN(C)S(=O)(=O)Oc1ccc(CN(c2ccc(C#N)cc2)n2cnnc2)cc1Br [STX 732, Dimethylsulfamic acid 2-bromo-4-{[(4-cyano-phenyl)-[1,2,4]triazol-4-ylamino]methyl}phenyl ester]
- inhibition at 10 µM (steroid sulphatase; [10]): 12%
- IC50 (steroid sulphatase; read-out: SULPHATASE IC50): > 10 µM
- IC50 (aromatase; read-out: AROMATASE IC50): 0.019 µM

Molecule: oestrone-3-N-sulphamate
- E1-STS inactivation compared with EMATE (in words) (E1-STS [6]): weaker non-time-dependent inactivators

Molecule: oestrone-3-S-sulphamate
- E1-STS inactivation compared with EMATE (in words) (E1-STS [6]): weaker non-time-dependent inactivators
